Data taken from PubChem BioAssay (NCI).
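Results reflect a 48-hour exposure of cells in 96-well plates to compound at five concentrations. GI50: concentration for 50% inhibition of growth. The concentration for full growth arrest is given as TGI.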

Assays:
Assay in all cases: NCI tumour cell line growth inhibition, 48 h
OVCAR-8 ovarian = test system: OVCAR-8 ovarian
T-47D breast = test system: T-47D breast
HCT-15 colon = test system: HCT-15 colon
MDA-MB-231 breast = test system: MDA-MB-231 breast
HCT-116 colon = test system: HCT-116 colon
SR leukemia = test system: SR leukemia
HT29 colon = test system: HT29 colon
HL-60(TB) leukemia = test system: HL-60(TB) leukemia
SK-MEL-28 melanoma = test system: SK-MEL-28 melanoma

| Structure (SMILES) | TGI (OVCAR-8 ovarian) [µM] | TGI (T-47D breast) [µM] | TGI (HCT-15 colon) [µM] | TGI (MDA-MB-231 breast) [µM] | TGI (HCT-116 colon) [µM] | TGI (SR leukemia) [µM] | TGI (HT29 colon) [µM] | TGI (HL-60(TB) leukemia) [µM] | TGI (SK-MEL-28 melanoma) [µM] | GI50 (OVCAR-8 ovarian) [µM] | GI50 (T-47D breast) [µM] | GI50 (HCT-15 colon) [µM] | GI50 (MDA-MB-231 breast) [µM] | GI50 (HL-60(TB) leukemia) [µM] | GI50 (SK-MEL-28 melanoma) [µM] | GI50 (SR leukemia) [µM] | GI50 (HT29 colon) [µM] | GI50 (HCT-116 colon) [µM] |
| --- | --- | --- | --- | --- | --- | --- | --- | --- | --- | --- | --- | --- | --- | --- | --- | --- | --- | --- |
| CCCCNC(=S)Nc1nc(C(=O)NNC(=S)NC2CCCCC2)cs1 | > 100 | > 100 | > 100 | > 100 | > 100 | 35.4 | > 100 |  |  |  |  |  |  |  |  |  |  |  |
| CC(C)(C)c1cc(C2=NN(c3ccccc3)C(c3ccccc3)C2)cc(C(C)(C)C)c1O (stereo unspecified) | > 100 | > 100 | > 100 | > 100 | > 100 | > 100 | > 100 | > 100 | > 100 |  |  |  |  |  |  |  |  |  |
| N#Cc1c(N)sc2c1-c1ccccc1OC2 |  |  | > 100 | > 100 | 82.8 | 47.9 | > 100 | 82.1 | > 100 |  |  |  |  |  |  |  |  |  |
| CSc1c(C#N)c(N)nc2c(N=Nc3ccc(Cl)cc3)c(N)nn12 | 4.15 | 3.86 | 5.5 | 4.85 |  |  | 8.38 | 5.23 | 7.57 |  |  |  |  |  |  |  |  |  |
| N#CCCN(CCC#N)c1ccc(/C=C2\N=C(c3ccccc3)N(NC(N)=S)C2=O)cc1 | > 100 | > 100 | > 100 | > 100 | > 100 |  | > 100 | > 100 | > 100 |  |  |  |  |  |  |  |  |  |
| COc1cc(/C=C/C(=O)c2c(C)nc3ccccc3c2C)ccc1OCCCOc1cc2c(cc1OC)C(=O)N1CCC[C@H]1C=N2 | > 38.1 |  | 1.01 | 0.0985 |  |  | 3.03 |  | 0.044 | 0.0329 | 0.041 | 0.278 | 0.0306 | 0.0356 | 0.0214 | 0.0321 | 0.028 |  |
| CCCCN1C(=O)c2c(-c3sccc3N)sc(-c3sccc3N)c2C1=O | > 72.1 | > 100 | > 100 | 97.3 | > 100 | > 23.1 | 44.5 |  | 36.7 |  |  |  |  |  |  |  |  |  |
| CO/N=C(\C)COc1ccc2c(=O)c(-c3ccccc3)coc2c1 | 46.8 | 48.6 | > 100 | 40.9 | 30 |  | > 100 | > 100 | > 100 | 21.4 | 17.3 | 40.1 | 20.5 | 37.7 | > 100 |  | > 100 | 14.8 |
| Cc1ccc(O)c(-c2cc(-c3cccc(Cl)c3)c(C#N)c(N)n2)c1 | > 100 | > 100 | 28 | 54.4 | 30.1 | 30.3 | 58.3 | 68.6 |  |  |  |  |  |  |  |  |  |  |
| N=c1c2c(-c3ccccc3)c[nH]c2ncn1N | > 100 | > 100 | > 100 | > 100 | > 100 |  | > 100 | > 100 | > 100 |  |  |  |  |  |  |  |  |  |
| Cc1ccc(-n2[nH]nc(C#N)c2=O)cc1 | > 100 | > 100 | > 100 | > 100 | > 100 |  | > 100 | > 100 | > 100 |  |  |  |  |  |  |  |  |  |
| CCCCCCCCCCCCCC[n+]1ccc2c(C)c3c(c(C)c2c1)c1cc(O)ccc1n3CC |  |  | 3.5 | 2.1 |  |  |  | 1.95 | 1.73 |  |  | 1.21 | 0.602 | 0.378 | 0.496 |  |  |  |
| CC1OC2(CC(OCc3ccccc3)C1OCc1ccccc1)OCCO2 (stereo unspecified) | > 100 |  | 90.5 | > 100 | > 100 | > 100 | 58.2 | 48.9 | > 100 |  |  |  |  |  |  |  |  |  |
| O=c1[nH]c(Nc2cc(Cl)cc(Cl)c2)nc2nc[nH]c12 | > 75 | > 75 | > 75 | > 75 | > 75 |  | > 75 |  |  |  |  |  |  |  |  |  |  |  |
| O=C1CCCC/C1=C\c1ccc(Br)cc1 | > 100 | 51 |  | 37.7 | 31.6 | > 100 |  | 7.23 | 31.6 |  |  |  |  |  |  |  |  |  |
| Cc1cccnc1/N=C/c1c(O)n(C)c(=O)[nH]c1=O | > 100 | > 100 | > 100 |  | > 100 |  | > 100 | > 100 | > 100 |  |  |  |  |  |  |  |  |  |
| CSCCCNC(=O)c1csc(-c2csc(C(CNC(=O)OC(C)(C)C)CNC(=O)OC(C)(C)C)n2)n1 | > 100 | > 100 | > 100 | > 100 | > 100 | 70.1 |  |  |  |  |  |  |  |  |  |  |  |  |
| C/C(=C/C(=O)Nn1c(Cc2ccccc2)n[nH]c1=O)C(=O)O | > 100 | > 100 | > 100 | > 100 | > 100 |  | > 100 | > 100 | > 100 |  |  |  |  |  |  |  |  |  |
| N#C/C(=C\c1cc(Cl)cc(Cl)c1)c1ccccn1 | > 100 |  | > 100 |  | > 100 | > 100 | > 100 | > 100 | > 100 |  |  |  |  |  |  |  |  |  |

| Structure (SMILES) | TGI (OVCAR-8 ovarian) [µM] | TGI (T-47D breast) [µM] | TGI (HCT-15 colon) [µM] | TGI (MDA-MB-231 breast) [µM] | TGI (HCT-116 colon) [µM] | TGI (SR leukemia) [µM] | TGI (HT29 colon) [µM] | TGI (HL-60(TB) leukemia) [µM] | TGI (SK-MEL-28 melanoma) [µM] | GI50 (OVCAR-8 ovarian) [µM] | GI50 (T-47D breast) [µM] | GI50 (HCT-15 colon) [µM] | GI50 (MDA-MB-231 breast) [µM] | GI50 (HL-60(TB) leukemia) [µM] | GI50 (SK-MEL-28 melanoma) [µM] | GI50 (SR leukemia) [µM] | GI50 (HT29 colon) [µM] | GI50 (HCT-116 colon) [µM] |
| --- | --- | --- | --- | --- | --- | --- | --- | --- | --- | --- | --- | --- | --- | --- | --- | --- | --- | --- |
| O=S(=O)(O)ON=C1c2ccccc2-c2ccccc21 | > 100 | > 100 |  | > 100 | > 100 | > 100 | > 100 | > 100 | > 100 |  |  |  |  |  |  |  |  |  |
| COC(=O)/C=C/c1ccc2c(c1)CC1(C2)Cc2cc3c(cc2C1=O)CCC3 (stereo unspecified) | 68.8 | 81.8 | > 100 | > 100 | > 100 | > 100 |  | > 100 | > 100 |  |  |  |  |  |  |  |  |  |
| O=C(/C=C/c1ccc(O)c(O)c1)c1cc(O)cc(O)c1 | 32.8 | 29.3 | 29.2 | 28.8 | 25.6 | > 100 | 39 |  | 31.2 |  |  |  |  |  |  |  |  |  |
| COc1ccc2sc(-n3nc4ccccc4c3Nc3nc4ccc(OC)cc4s3)nc2c1 | 6.17 | 5.64 | > 72.1 | 10.9 | 5.95 | > 100 | 14.7 |  | 26.5 |  |  |  |  |  |  |  |  |  |
| Cc1cc(NC[C@H](O)[C@H](O)[C@H](O)CO)c(Sc2cc(=O)[nH]c(=O)[nH]2)cc1C | > 62.5 | > 62.5 | > 62.5 | > 62.5 | > 62.5 | > 62.5 | > 62.5 |  | > 62.5 |  |  |  |  |  |  |  |  |  |
| CC(=O)N(O)[C@@H]1CC[C@H](n2cnc3c(N)ncnc32)C1 | > 100 | > 100 | > 100 | > 100 | > 100 | > 100 |  |  | > 100 |  |  |  |  |  |  |  |  |  |
| Cn1/c(=N\S(=O)(=O)c2ccccc2)n(S(=O)(=O)c2ccccc2)c2ccccc21 | > 100 | > 100 | > 100 | > 100 | > 100 |  | > 100 | 7.16 | > 100 |  |  |  |  |  |  |  |  |  |
| CN(C)c1ccc(C(Cc2ccc3ccccc3n2)Cc2ccc3ccccc3n2)cc1 |  | > 100 |  | > 100 | > 100 |  | > 100 |  |  |  | 1.71 |  | 5.41 |  |  |  | 3.83 | 2.64 |
| CCOc1ccc(/C=N/[N+](C)(C)C)cc1OCC | > 10 | > 10 | > 10 | > 10 | > 10 | > 10 | > 10 |  | > 10 |  |  |  |  |  |  |  |  |  |
| CCOC(=O)c1ccc(C(=O)/C(C(C)=O)=C2\CCCN2C)n1C | > 100 | 92 | > 100 | > 100 | > 100 | 98.9 |  | 64.2 | > 100 |  |  |  |  |  |  |  |  |  |
| CN1C(=O)[C@@H]2[C@@H]3c4ccccc4N(S(=O)(=O)C(F)(F)F)[C@@H]3c3[nH]c4ccccc4c3[C@@H]2C1=O | > 100 |  | > 100 | > 100 | > 100 | 43 | > 100 |  | > 100 |  |  |  |  |  |  |  |  |  |
| Fc1ccc2nc3n(c2c1)C(c1c(Cl)cccc1Cl)SC3 (stereo unspecified) | > 100 | > 100 | > 100 | > 100 | > 100 | > 100 | > 100 |  | > 100 |  |  |  |  |  |  |  |  |  |
| CCc1ccc2nc(-c3ccc(O)cc3)sc2c1 | 38.9 |  | 29.4 | 29.9 | 30.4 |  | 30.2 | 10.2 |  |  |  |  |  |  |  |  |  |  |
| COc1ccc(/C=C2\CCC(CNc3ccc(OC)cc3)C2=O)cc1 (stereo unspecified) | 36.3 | 57.1 | 20.4 | 35.7 | 23.2 |  | 33.2 | 17.5 | 37.5 |  |  |  |  |  |  |  |  |  |
| CCSc1cc(=O)n(C)c(=O)n1C | > 100 | > 100 | > 100 | > 100 | > 100 |  | > 100 | > 100 | > 100 |  |  |  |  |  |  |  |  |  |
| CC1(CCCO)CCCCCCCCCC(C)(CCCO)C1=O (stereo unspecified) | > 100 | > 100 | > 100 | > 100 | > 100 |  | > 100 | > 100 | > 100 |  |  |  |  |  |  |  |  |  |
| NC1CC2NC3CCCCC3NC2CC1N (stereo unspecified) | > 100 |  | > 100 | > 100 | > 100 | > 100 | > 100 | 94.9 | > 100 |  |  |  |  |  |  |  |  |  |
| CCOC(=O)C1OC(C2(C)OC3(OC4(C=CC3O)OC(C(C)C(=O)C(C)C(O)C(C)CC(C)c3c(Cl)cc(C)c(O)c3C(=O)O)C(C)CC4C)C(C)C2OC)CC1O (stereo unspecified) | 13.3 |  | > 20.2 | 2.96 | 3.75 | 4.53 | 3.57 | 4.66 | 1.02 |  |  |  |  |  |  |  |  |  |
